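Five compound concentrations were applied to cells in 96-well plates for 48 hours; endpoints were derived by simple linear interpolation of the resulting dose-response curve. TGI marks complete inhibition of growth.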
Assays:
Assay in all cases: inhibition of tumour cell growth, NCI panel, 48 h
MDA-MB-231 breast = test system: MDA-MB-231 breast
BT-549 breast = test system: BT-549 breast
SK-MEL-5 melanoma = test system: SK-MEL-5 melanoma
HCC-2998 colon = test system: HCC-2998 colon
NCI/ADR-RES ovarian = test system: NCI/ADR-RES ovarian
MOLT-4 leukemia = test system: MOLT-4 leukemia
CAKI-1 renal = test system: CAKI-1 renal
NCI-H460 lung = test system: NCI-H460 lung
OVCAR-8 ovarian = test system: OVCAR-8 ovarian
K-562 leukemia = test system: K-562 leukemia
NCI-H226 lung = test system: NCI-H226 lung
UACC-257 melanoma = test system: UACC-257 melanoma
DU-145 prostate = test system: DU-145 prostate
786-0 renal = test system: 786-0 renal
HL-60(TB) leukemia = test system: HL-60(TB) leukemia
UACC-62 melanoma = test system: UACC-62 melanoma
EKVX NSCLC = test system: EKVX NSCLC
OVCAR-4 ovarian = test system: OVCAR-4 ovarian
A549 NSCLC = test system: A549 NSCLC
SR leukemia = test system: SR leukemia
HS 578T breast = test system: HS 578T breast
COLO 205 colon = test system: COLO 205 colon
MDA-MB-435 = test system: MDA-MB-435
A498 renal = test system: A498 renal
SF-268 CNS = test system: SF-268 CNS
PC-3 prostate = test system: PC-3 prostate
UO-31 renal = test system: UO-31 renal
OVCAR-3 ovarian = test system: OVCAR-3 ovarian
MALME-3M melanoma = test system: MALME-3M melanoma
HCT-15 colon = test system: HCT-15 colon
NCI-H522 lung = test system: NCI-H522 lung
T-47D breast = test system: T-47D breast
NCI-H23 lung = test system: NCI-H23 lung
RPMI-8226 leukemia = test system: RPMI-8226 leukemia
SNB-75 CNS = test system: SNB-75 CNS
M14 melanoma = test system: M14 melanoma
TK-10 renal = test system: TK-10 renal
U251 CNS = test system: U251 CNS
SNB-19 CNS = test system: SNB-19 CNS
MDA-N = test system: MDA-N
MCF7 breast = test system: MCF7 breast
SN12C renal = test system: SN12C renal
SF-539 CNS = test system: SF-539 CNS
SW-620 colon = test system: SW-620 colon
LOX IMVI melanoma = test system: LOX IMVI melanoma
CCRF-CEM leukemia = test system: CCRF-CEM leukemia
OVCAR-5 ovarian = test system: OVCAR-5 ovarian
HCT-116 colon = test system: HCT-116 colon
SK-OV-3 ovarian = test system: SK-OV-3 ovarian
HT29 colon = test system: HT29 colon
RXF 393 renal = test system: RXF 393 renal
KM12 colon = test system: KM12 colon
SK-MEL-28 melanoma = test system: SK-MEL-28 melanoma
SK-MEL-2 melanoma = test system: SK-MEL-2 melanoma
HOP-62 NSCLC = test system: HOP-62 NSCLC
IGROV1 ovarian = test system: IGROV1 ovarian
SF-295 CNS = test system: SF-295 CNS
ACHN renal = test system: ACHN renal
HOP-92 NSCLC = test system: HOP-92 NSCLC

For `CSc1c(C(C)=O)c(O)n(-c2ccc(Cl)cc2)c(=O)c1C#N`, the TGI (MDA-MB-231 breast) was over 100 µM, the TGI (BT-549 breast) was over 100 µM and the TGI (SK-MEL-5 melanoma) was over 100 µM. The TGI (HCC-2998 colon) was over 100 µM, the TGI (NCI/ADR-RES ovarian) was over 100 µM and the TGI (MOLT-4 leukemia) was 55.3 µM. It also gave a TGI (CAKI-1 renal) of 53.2 µM, a TGI (NCI-H460 lung) of over 100 µM and a TGI (OVCAR-8 ovarian) of over 100 µM. For the same compound, the TGI (K-562 leukemia) was 92.2 µM, the TGI (NCI-H226 lung) was over 100 µM and the TGI (UACC-257 melanoma) was over 100 µM. The TGI (DU-145 prostate) was over 100 µM, the TGI (786-0 renal) was over 100 µM and the TGI (HL-60(TB) leukemia) was 46.9 µM. For the same compound, the TGI (UACC-62 melanoma) was over 100 µM, the TGI (EKVX NSCLC) was over 100 µM and the TGI (OVCAR-4 ovarian) was over 100 µM. For the same compound, the TGI (A549 NSCLC) was over 100 µM, the TGI (SR leukemia) was over 100 µM and the TGI (HS 578T breast) was over 100 µM. The TGI (COLO 205 colon) was 65.6 µM, the TGI (MDA-MB-435) was over 100 µM and the TGI (A498 renal) was 93.5 µM. The TGI (SF-268 CNS) was over 100 µM, the TGI (PC-3 prostate) was over 100 µM and the TGI (UO-31 renal) was 84.6 µM. For the same compound, the TGI (OVCAR-3 ovarian) was over 100 µM, the TGI (MALME-3M melanoma) was over 100 µM and the TGI (HCT-15 colon) was 99.5 µM. It also gave a TGI (NCI-H522 lung) of 21.9 µM, a TGI (T-47D breast) of over 100 µM and a TGI (NCI-H23 lung) of over 100 µM. The TGI (RPMI-8226 leukemia) was 99.2 µM, the TGI (SNB-75 CNS) was over 100 µM and the TGI (M14 melanoma) was over 100 µM. The TGI (TK-10 renal) was over 100 µM, the TGI (U251 CNS) was over 100 µM and the TGI (SNB-19 CNS) was over 100 µM. For the same compound, the TGI (MDA-N) was over 100 µM, the TGI (MCF7 breast) was over 100 µM and the TGI (SN12C renal) was over 100 µM. It also gave a TGI (SF-539 CNS) of over 100 µM, a TGI (SW-620 colon) of over 100 µM and a TGI (LOX IMVI melanoma) of over 100 µM. It also gave a TGI (CCRF-CEM leukemia) of 54.3 µM, a TGI (OVCAR-5 ovarian) of over 100 µM and a TGI (HCT-116 colon) of over 100 µM. The TGI (SK-OV-3 ovarian) was over 100 µM, the TGI (HT29 colon) was over 100 µM and the TGI (RXF 393 renal) was over 100 µM. It also gave a TGI (KM12 colon) of over 100 µM, a TGI (SK-MEL-28 melanoma) of over 100 µM and a TGI (SK-MEL-2 melanoma) of over 100 µM.

For `NC(N)=N/N=C(\c1ccc(Cl)cc1)C1CC1`, the TGI (MDA-MB-231 breast) was 34.9 µM, the TGI (HOP-62 NSCLC) was 37.7 µM and the TGI (BT-549 breast) was 49.6 µM. For the same compound, the TGI (SK-MEL-5 melanoma) was 29 µM, the TGI (HCC-2998 colon) was 19.4 µM and the TGI (NCI/ADR-RES ovarian) was 61.2 µM. The TGI (CAKI-1 renal) was over 100 µM, the TGI (NCI-H460 lung) was 29.9 µM and the TGI (OVCAR-8 ovarian) was 40.4 µM. The TGI (K-562 leukemia) was 55.7 µM, the TGI (NCI-H226 lung) was 33.2 µM and the TGI (UACC-257 melanoma) was 28 µM. It also gave a TGI (DU-145 prostate) of 57.4 µM, a TGI (786-0 renal) of 32.5 µM and a TGI (UACC-62 melanoma) of 29.3 µM. The TGI (IGROV1 ovarian) was 31.8 µM, the TGI (EKVX NSCLC) was 83 µM and the TGI (OVCAR-4 ovarian) was over 100 µM. It also gave a TGI (A549 NSCLC) of over 100 µM, a TGI (SR leukemia) of 29.1 µM and a TGI (HS 578T breast) of 78.3 µM. The TGI (COLO 205 colon) was 31 µM, the TGI (MDA-MB-435) was 34.7 µM and the TGI (A498 renal) was 32.3 µM. It also gave a TGI (SF-268 CNS) of over 100 µM, a TGI (PC-3 prostate) of 34.9 µM and a TGI (UO-31 renal) of 79.9 µM. The TGI (SF-295 CNS) was 48.3 µM, the TGI (OVCAR-3 ovarian) was 50.4 µM and the TGI (ACHN renal) was 57.7 µM. The TGI (MALME-3M melanoma) was 29 µM, the TGI (HCT-15 colon) was 40.2 µM and the TGI (NCI-H522 lung) was 31.3 µM. The TGI (T-47D breast) was 64.4 µM, the TGI (NCI-H23 lung) was 73.1 µM and the TGI (RPMI-8226 leukemia) was 37.9 µM. The TGI (SNB-75 CNS) was 68.9 µM, the TGI (M14 melanoma) was 30 µM and the TGI (TK-10 renal) was 29.9 µM. The TGI (HOP-92 NSCLC) was 62.6 µM, the TGI (U251 CNS) was 27.2 µM and the TGI (SNB-19 CNS) was over 100 µM. The TGI (MDA-N) was 30.8 µM, the TGI (MCF7 breast) was 32.5 µM and the TGI (SN12C renal) was 42.3 µM. It also gave a TGI (SF-539 CNS) of 32.3 µM, a TGI (SW-620 colon) of 35.2 µM and a TGI (LOX IMVI melanoma) of 30 µM. It also gave a TGI (OVCAR-5 ovarian) of 39.3 µM, a TGI (HCT-116 colon) of 31 µM and a TGI (SK-OV-3 ovarian) of 78.7 µM. It also gave a TGI (HT29 colon) of 32.2 µM, a TGI (RXF 393 renal) of over 100 µM and a TGI (KM12 colon) of 35.8 µM. For the same compound, the TGI (SK-MEL-28 melanoma) was 38.2 µM and the TGI (SK-MEL-2 melanoma) was 34.5 µM.

— PubChem BioAssay (NCI)
